The compounds below were run on HCV 1b-377-neo replicon cells (assay: HCV Replicon assay, HCV 1b genotype). Conditions: Hepatitis C virus, class symbol, read-out: EC50 range against HCV 1b.
Assay type: cell-based
Description: An HCV Replicon assay was utilized in the present disclosure, and was prepared, conducted and validated as described in commonly owned PCT/US2006/022197 and in O'Boyle et. al. Antimicrob Agents Chemother. 2005 April; 49(4): 1346-53.
HCV 1b-377-neo replicon cells were used to test the currently described compound series as well as cells resistant to compound A containing a Y2065H mutation in NS5A (described in application PCT/US2006/022197). The compounds tested were determined to have more than 10-fold less inhibitory activity on cells containing the mutation than wild-type cells indicating a related mechanism of action between the two compound series. Thus, the compounds of the present disclosure can be effective to inhibit the function of the HCV NS5A protein and are understood to be as effective in combinations as previously described in application PCT/US2006/022197 and commonly owned WO/04014852. Further, the compounds of the present disclosure can be effective against the HCV 1b genotype. It should also be understood that the compounds of the present disclosure can inhibit multiple genotypes of HCV. […] In one embodiment compounds of the present disclosure are active against the 1a, 1b, 2a, 2b, 3a, 4a, and 5a genotypes.
`COC(=O)N[C@H](C(=O)N1CCC[C@H]1c1ncc(-c2ccc3c(c2)C2(CCC2)c2cc(-c4cnc([C@@H]5CCCN5C(=O)[C@@H](NC(=O)OC)C(C)C)[nH]4)ccc2-3)[nH]1)C(C)C` [Example 16, methyl ((1S)-1-(((2S)-2-(5-(7′-(2-((2S)-1-((2S)-2-((methoxycarbonyl)amino)-3-methylbutanoyl)-2-pyrrolidinyl)-1H-imidazol-5-yl)spiro[cyclobutane-1,9′-fluoren]-2′-yl)-1H-imidazol-2-yl)-1-pyrrolidinyl)carbonyl)-2-methylpropyl)carbamate] was tested, and the EC50 was 1 to 100 pM. With `COC(=O)N[C@H](C(=O)N1CCC[C@H]1c1ncc(-c2ccc3c(c2)C(C)(N(C)C)c2cc(-c4cnc([C@@H]5CCCN5C(=O)[C@@H](NC(=O)OC)C(C)C)[nH]4)ccc2-3)[nH]1)C(C)C` [Example 13, methyl ((1S)-1-(((2S)-2-(5-(9-(dimethylamino)-7-(2-((2S)-1-((2S)-2-((methoxycarbonyl)amino)-3-methylbutanoyl)-2-pyrrolidinyl)-1H-imidazol-5-yl)-9-methyl-9H-fluoren-2-yl)-1H-imidazol-2-yl)-1-pyrrolidinyl)carbonyl)-2-methylpropyl)carbamate] the EC50 was 1 to 100 pM. Work on `COC(=O)NC(C(=O)N1CCC[C@H]1c1ncc(-c2ccc3c(c2)COCc2cc(-c4cnc([C@@H]5CCCN5C(=O)C(NC(=O)OC)C5CCOCC5)[nH]4)ccc2-3)[nH]1)C1CCOCC1` (stereo partly drawn) [Example 10A, dimethyl (5,7-dihydrodibenzo[c,e]oxepine-3,9-diylbis(1H-imidazole-4,2-diyl(2S)-2,1-pyrrolidinediyl(2-oxo-1-(tetrahydro-2H-pyran-4-yl)-2,1-ethanediyl)))biscarbamate] yielded an EC50 of 1000 to 99000 pM. Compound `COC(=O)N[C@@H](C)C(=O)N1CCC[C@H]1c1ncc(-c2ccc3c4ccc(-c5cnc([C@@H]6CCCN6C(=O)[C@H](C)NC(=O)OC)[nH]5)cc4n(C)c3c2)[nH]1` [Example 22, methyl ((1S)-2-((2S)-2-(5-(7-(2-((2S)-1-(N-(methoxycarbonyl)-L-alanyl)-2-pyrrolidinyl)-1H-imidazol-5-yl)-9-methyl-9H-carbazol-2-yl)-1H-imidazol-2-yl)-1-pyrrolidinyl)-1-methyl-2-oxoethyl)carbamate] has an EC50 of 1000 to 99000 pM. Work on `COC(=O)N[C@@H](C)C(=O)N1CCC[C@H]1c1ncc(-c2ccc3c(c2)C2(CCC2)c2cc(-c4cnc([C@@H]5CCCN5C(=O)[C@H](C)NC(=O)OC)[nH]4)ccc2-3)[nH]1` [Example 17] yielded an EC50 of 1 to 100 pM. With `COC(=O)N[C@H](C(=O)N1CCC[C@H]1c1ncc(-c2ccc3c4ccc(-c5cnc([C@@H]6CCCN6C(=O)[C@@H](NC(=O)OC)C(C)C)[nH]5)cc4n(S(=O)(=O)c4ccccc4)c3c2)[nH]1)C(C)C` [Example 27, methyl ((1S)-1-(((2S)-2-(5-(7-(2-((2S)-1-((2S)-2-((methoxycarbonyl)amino)-3-methylbutanoyl)-2-pyrrolidinyl)-1H-imidazol-5-yl)-9-(phenylsulfonyl)-9H-carbazol-2-yl)-1H-imidazol-2-yl)-1-pyrrolidinyl)carbonyl)-2-methylpropyl)carbamate] the EC50 was 1 to 100 pM. With `COC(=O)N[C@H](C(=O)N1CCC[C@H]1c1ncc(-c2ccc3c(c2)oc2cc(-c4cnc([C@@H]5CCCN5C(=O)[C@@H](NC(=O)OC)C(C)(C)O)[nH]4)ccc23)[nH]1)C(C)(C)O` [Example 21, methyl ((1S)-2-hydroxy-1-(((2S)-2-(4-(7-(2-((2S)-1-((2S)-3-hydroxy-2-((methoxycarbonyl)amino)-3-methylbutanoyl)-2-pyrrolidinyl)-1H-imidazol-4-yl)dibenzo[b,d]furan-3-yl)-1H-imidazol-2-yl)-1-pyrrolidinyl)carbonyl)-2-methylpropyl)carbamate] the EC50 was 1 to 100 pM. Compound `COC(=O)N[C@@H](C)C(=O)N1CCC[C@H]1c1ncc(-c2ccc3c4ccc(-c5cnc([C@@H]6CCCN6C(=O)[C@H](C)NC(=O)OC)[nH]5)cc4n(S(=O)(=O)c4ccccc4)c3c2)[nH]1` [Example 26, methyl ((1S)-2-((2S)-2-(5-(7-(2-((2S)-1-(N-(methoxycarbonyl)-L-alanyl)-2-pyrrolidinyl)-1H-imidazol-5-yl)-9-(phenylsulfonyl)-9H-carbazol-2-yl)-1H-imidazol-2-yl)-1-pyrrolidinyl)-1-methyl-2-oxoethyl)carbamate] has an EC50 of 1 to 100 pM. Compound `COCCn1c2cc(-c3cnc([C@@H]4CCCN4C(=O)[C@H](C)NC(=O)OC)[nH]3)ccc2c2ccc(-c3cnc([C@@H]4CCCN4C(=O)[C@H](C)NC(=O)OC)[nH]3)cc21` [Example 34, methyl ((1S)-2-((2S)-2-(5-(7-(2-((2S)-1-(N-(methoxycarbonyl)-L-alanyl)-2-pyrrolidinyl)-1H-imidazol-5-yl)-9-(2-methoxyethyl)-9H-carbazol-2-yl)-1H-imidazol-2-yl)-1-pyrrolidinyl)-1-methyl-2-oxoethyl)carbamate] has an EC50 of 1000 to 99000 pM. `COCC[C@H](NC(=O)OC)C(=O)N1CCC[C@H]1c1ncc(-c2ccc3c(c2)[nH]c2cc(-c4cnc([C@@H]5CCCN5C(=O)[C@H](CCOC)NC(=O)OC)[nH]4)ccc23)[nH]1` [Example 31, methyl ((1S)-3-methoxy-1-(((2S)-2-(5-(7-(2-((2S)-1-(N-(methoxycarbonyl)-O-methyl-L-homoseryl)-2-pyrrolidinyl)-1H-imidazol-5-yl)-9H-carbazol-2-yl)-1H-imidazol-2-yl)-1-pyrrolidinyl)carbonyl)propyl) carbamate] showed an EC50 of 1000 to 99000 pM. With `COC(=O)N[C@H](C(=O)N1CCC[C@H]1c1ncc(-c2ccc3c(c2)COCc2cc(-c4cnc([C@@H]5CCCN5C(=O)[C@@H](NC(=O)OC)C(C)C)[nH]4)ccc2-3)[nH]1)C(C)C` [Example 8, methyl ((1S)-1-(((2S)-2-(5-(9-(2-((2S)-1-((2S)-2-((methoxycarbonyl)amino)-3-methylbutanoyl)-2-pyrrolidinyl)-1H-imidazol-4-yl)-5,7-dihydrodibenzo[c,e]oxepin-3-yl)-1H-imidazol-2-yl)-1-pyrrolidinyl)carbonyl)-2-methylpropyl)carbamate] the EC50 was 1 to 100 pM. With `COC(=O)N[C@H](C(=O)N1CCC[C@H]1c1ncc(-c2ccc3c(c2)C(N(C)C)c2cc(-c4cnc([C@@H]5CCCN5C(=O)[C@@H](NC(=O)OC)C(C)C)[nH]4)ccc2-3)[nH]1)C(C)C` [Example 3, methyl ((1S)-1-(((2S)-2-(5-(9-(dimethylamino)-7-(2-((2S)-1-((2S)-2-((methoxycarbonyl)amino)-3-methylbutanoyl)-2-pyrrolidinyl)-1H-imidazol-5-yl)-9H-fluoren-2-yl)-1H-imidazol-2-yl)-1-pyrrolidinyl)carbonyl)-2-methylpropyl)carbamate] the EC50 was 101 to 999 pM. `COC(=O)N[C@H](C(=O)N1CCC[C@H]1c1ncc(-c2ccc3c(c2)Cc2cc(-c4cnc([C@@H]5CCCN5C(=O)[C@@H](NC(=O)OC)C(C)C)[nH]4)ccc2-3)[nH]1)C(C)C` [Example 4, methyl ((1S)-1-(((2S)-2-(5-(7-(2-((2S)-1-((2S)-2-((methoxycarbonyl)amino)-3-methylbutanoyl)-2-pyrrolidinyl)-1H-imidazol-5-yl)-9H-fluoren-2-yl)-1H-imidazol-2-yl)-1-pyrrolidinyl)carbonyl)-2-methylpropyl)carbamate] was tested, and the EC50 was 1 to 100 pM. `COC(=O)N[C@H](C(=O)N1CCC[C@H]1c1ncc(-c2ccc3c(c2)oc2cc(-c4cnc([C@@H]5CCCN5C(=O)[C@@H](NC(=O)OC)C5CC5)[nH]4)ccc23)[nH]1)C1CC1` [Example 19, dimethyl (dibenzo[b,d]furan-3,7-diylbis(1H-imidazole-4,2-diyl(2S)-2,1-pyrrolidinediyl((1S)-1-cyclopropyl-2-oxo-2,1-ethanediyl)))biscarbamate] was tested, and the EC50 was 1 to 100 pM.

Same assay, conditions: Hepatitis C virus, value in pM, read-out: EC50 value against HCV 1b
With `COC(=O)N[C@H](C(=O)N1CCC[C@H]1c1ncc(-c2ccc3c(c2)C(C)(C)c2cc(-c4cnc([C@@H]5CCCN5C(=O)[C@@H](NC(=O)OC)C5CC5)[nH]4)ccc2-3)[nH]1)C1CC1` [Example 15, dimethyl ((9,9-dimethyl-9H-fluorene-2,7-diyl)bis(1H-imidazole-5,2-diyl(2S)-2,1-pyrrolidinediyl((1S)-1-cyclopropyl-2-oxo-2,1-ethanediyl)))biscarbamate] the EC50 was 52 pM. `COC(=O)N[C@H](C(=O)N1CCC[C@H]1c1ncc(-c2ccc3c(c2)COCc2cc(-c4cnc([C@@H]5CCCN5C(=O)[C@@H](NC(=O)OC)[C@@H](C)OC)[nH]4)ccc2-3)[nH]1)[C@@H](C)OC` [Example 11, methyl ((1S,2R)-2-methoxy-1-(((2S)-2-(4-(9-(2-((2S)-1-(N-(methoxycarbonyl)-O-methyl-L-threonyl)-2-pyrrolidinyl)-1H-imidazol-4-yl)-5,7-dihydrodibenzo[c,e]oxepin-3-yl)-1H-imidazol-2-yl)-1-pyrrolidinyl)carbonyl)propyl)carbamate] was tested, and the EC50 was 146 pM.

Same assay, conditions: class symbol, read-out: EC50 range against HCV 1b
For `COCC[C@H](NC(=O)OC)C(=O)N1CCC[C@H]1c1ncc(-c2ccc3c4ccc(-c5cnc([C@@H]6CCCN6C(=O)[C@H](CCOC)NC(=O)OC)[nH]5)cc4n(C)c3c2)[nH]1` [Example 24, methyl ((1S)-3-methoxy-1-(((2S)-2-(5-(7-(2-((2S)-1-(N-(methoxycarbonyl)-O-methyl-L-homoseryl)-2-pyrrolidinyl)-1H-imidazol-5-yl)-9-methyl-9H-carbazol-2-yl)-1H-imidazol-2-yl)-1-pyrrolidinyl)carbonyl)propyl) carbamate], the EC50 was 101 to 999 pM.
